Experiments:
[1] = biological target: T1, human CYP11B1 (Homo sapiens, UniProt P15538); assay: Inhibition of cortisol production in V79-B1 cells expressing human CYP11B1 (ELISA); type: cell-based; conditions: 11-deoxycortisol 100 nmol/L, 1 hour, unlabeled form, read-out: IC50 against cortisol production
T1 construct: expressed in transfected cells; host or cells: Chinese hamster lung-derived fibroblast V79 cells (V79-B1)
T1 sequence (P15538 25-503): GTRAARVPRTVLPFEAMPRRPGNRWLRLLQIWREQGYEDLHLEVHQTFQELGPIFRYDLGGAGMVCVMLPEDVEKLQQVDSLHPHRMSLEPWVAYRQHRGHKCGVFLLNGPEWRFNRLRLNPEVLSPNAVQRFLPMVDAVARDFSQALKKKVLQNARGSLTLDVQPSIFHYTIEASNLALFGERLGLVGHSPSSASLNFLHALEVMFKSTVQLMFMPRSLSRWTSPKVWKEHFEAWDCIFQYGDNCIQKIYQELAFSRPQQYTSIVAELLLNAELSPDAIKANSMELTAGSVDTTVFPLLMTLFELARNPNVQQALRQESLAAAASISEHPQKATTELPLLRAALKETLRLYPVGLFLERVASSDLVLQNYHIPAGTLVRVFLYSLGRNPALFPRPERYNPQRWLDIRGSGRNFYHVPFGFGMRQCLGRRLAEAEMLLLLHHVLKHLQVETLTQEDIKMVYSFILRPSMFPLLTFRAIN
Experimental: (§1) Chinese hamster lung-derived fibroblast V79 cells (obtained from European Collection of Cell Cultures (ECACC) via DS Pharma Biomedical Co., Ltd.) were allowed to express human CYP11B2 and human CYP11B1 to prepare V79-B2 and V79-B1, respectively. V79-B2 or V79-B1 was inoculated to a microplate and cultured overnight. Then, corticosterone and 11-deoxycortisol were added at final concentrations of 100 nmol/L into the culture supernatants of V79-B2 and V79-B1, respectively. At the same time, iodometomidate (IMTO) or the unlabeled form of PAY15, PAY21, PAY27, or PAY54 synthesized in Example 2, 5, 8, or 12 was added at a final concentration of 10^−4 to 10^3 nmol/L into the culture supernatants. One hour later, the culture supernatant of V79-B1 was recovered, and the concentration of cortisol, which is a metabolite of CYP11B1, was measured by enzyme-linked immunosorbent assay (ELISA). Four hours later, the culture supernatant of V79-B2 was recovered, and the concentration of aldosterone, which is a metabolite of CYP11B2, was measured by ELISA. […] IC50 against cortisol production/IC50 against aldosterone production was calculated and used as a selectivity factor for CYP11B2.

[2] = biological target: T2, CYP11B2 (Homo sapiens, UniProt P19099); assay: Inhibition of aldosterone production in V79-B2 cells expressing human CYP11B2 (ELISA); type: cell-based; design: expressed in transfected cells; host or cells: Chinese hamster lung-derived fibroblast V79 cells (V79-B2)
T2 sequence (P19099 25-503): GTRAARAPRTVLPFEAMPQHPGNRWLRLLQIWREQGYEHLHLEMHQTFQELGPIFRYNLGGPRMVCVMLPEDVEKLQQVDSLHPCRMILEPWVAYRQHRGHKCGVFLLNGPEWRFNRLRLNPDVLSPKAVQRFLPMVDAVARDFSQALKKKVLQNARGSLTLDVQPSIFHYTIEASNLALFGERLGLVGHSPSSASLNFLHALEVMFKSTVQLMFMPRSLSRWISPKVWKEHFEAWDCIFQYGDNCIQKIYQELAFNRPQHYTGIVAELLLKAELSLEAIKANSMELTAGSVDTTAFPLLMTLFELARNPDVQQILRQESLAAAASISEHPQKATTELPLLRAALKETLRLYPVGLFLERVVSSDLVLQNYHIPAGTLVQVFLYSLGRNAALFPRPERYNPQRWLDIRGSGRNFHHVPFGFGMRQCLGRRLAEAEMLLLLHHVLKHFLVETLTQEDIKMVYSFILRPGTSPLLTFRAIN
Experimental: as §1

[3] = Pharmacokinetic and distribution experiment (radioactivity in blood and excised organs after tail vein injection); type: in vivo; conditions: ddy mice; for Adrenal gland/Blood ratio / Adrenal gland/Kidney ratio / Adrenal gland/Liver ratio / Radioactivity Distribution, Adrenal gland / Radioactivity Distribution, Blood / Radioactivity Distribution, Heart / Radioactivity Distribution, Kidney / Radioactivity Distribution, Large intestine / Radioactivity Distribution, Liver / Radioactivity Distribution, Lung / Radioactivity Distribution, Pancreas / Radioactivity Distribution, Small intestine / Radioactivity Distribution, Spleen / Radioactivity Distribution, Stomach / Radioactivity Distribution, Thyroid: tail vein injection, 18.5 kBq (0.5 μCi)
Experimental: (§2) The HPLC fraction of [^125I]PAY15 obtained in Example 3 was concentrated and then diluted with saline. The resulting solution was used in administration. 100 μL of the solution (18.5 kBq (0.5 μCi)) was injected to the tail vein of each of five ddy mice (6 weeks old). Five minutes later, each mouse was decapitated, and blood was collected. Then, organs (adrenal gland, pancreas, heart, lung, stomach, small intestine, large intestine, liver, spleen, kidney, and thyroid gland) were excised. After measurement of their weights, the radioactivities of blood and each excised organ were measured. Also, the point in time when each mouse was decapitated was changed to 5, 15, 30, 60, and 120 minutes later to perform similar operation.
The HPLC fraction of [^125I]PAY21 obtained in Example 6 was concentrated and then diluted with saline. The resulting solution was used in administration to perform the same operation as in Evaluation 1.
as §2, with “[^18F]PAY27 obtained” for “The HPLC fraction of [^125I]PAY15 obtained”, “Example 10” for “Example 3”, “was” for “was concentrated and then”, “solution (14.8” for “solution (18.5”, “kBq (4” for “kBq (0.5”, “and thigh bone)” for “and thyroid gland)”
as §2, with “[^18F]PAY54 obtained” for “The HPLC fraction of [^125I]PAY15 obtained”, “Example 13” for “Example 3”, “was” for “was concentrated and then”, “solution (14.8” for “solution (18.5”, “kBq (4” for “kBq (0.5”, “and thigh bone)” for “and thyroid gland)”

With `O=C1CCc2cc(-c3cncc(I)c3)cc3c2N1CCC3` [PAY15, 9-(5-iodopyridin-3-yl)-1,2,6,7-tetrahydro-5H-pyrido[3,2,1-ij]quinolin-3-one] the IC50 [1] was 0.141 µM, the Selectivity factor ([2]; IC50 against cortisol production/IC50 against aldosterone production, selectivity factor for CYP11B2) was 223.95 and the IC50 ([2]; V79-B2 cells, corticosterone 100 nmol/L, 4 hours, unlabeled form, read-out: IC50 against aldosterone production) was 0.00063 µM. For the same compound, the “selectivity factor compared with IMTO” value ([2]; selectivity factor for CYP11B2, Table 6) was “higher than that of IMTO”.

For `O=C1CCc2cc(-c3cncc([125I])c3)cc3c2N1CCC3` [[^125I]PAY15, 9-(5-[^125I]iodopyridin-3-yl)-1,2,6,7-tetrahydro-5H-pyrido[3,2,1-ij]quinolin-3-one], the “radioactivity accumulation in the adrenal gland compared with blood and periadrenal tissues” value ([3]; at an early stage after administration) was “high radioactivity accumulation”, the “Adrenal gland/Blood ratio” value ([3]; 5 min) was 1.74 ± 0.12 and the “Adrenal gland/Kidney ratio” value ([3]; 5 min) was 1.42 ± 0.03. The “Adrenal gland/Liver ratio” value ([3]; 5 min) was 1.70 ± 0.23, the “Radioactivity Distribution, Adrenal gland” value ([3]; 5 min) was 8.7 ± 1.7 % dose/g and the “Radioactivity Distribution, Blood” value ([3]; 5 min) was 5.0 ± 1.2 % dose/g. The “Radioactivity Distribution, Heart” value ([3]; 5 min) was 3.6 ± 0.8 % dose/g, the “Radioactivity Distribution, Kidney” value ([3]; 5 min) was 6.1 ± 1.2 % dose/g and the “Radioactivity Distribution, Large intestine” value ([3]; 5 min) was 1.9 ± 0.8 % dose/g. The “Radioactivity Distribution, Liver” value ([3]; 5 min) was 5.1 ± 1.1 % dose/g, the “Radioactivity Distribution, Lung” value ([3]; 5 min) was 7.4 ± 1.6 % dose/g and the “Radioactivity Distribution, Pancreas” value ([3]; 5 min) was 4.0 ± 0.9 % dose/g. The “Radioactivity Distribution, Small intestine” value ([3]; 5 min) was 3.7 ± 0.9 % dose/g, the “Radioactivity Distribution, Spleen” value ([3]; 5 min) was 4.1 ± 0.8 % dose/g and the “Radioactivity Distribution, Stomach” value ([3]; 5 min) was 3.5 ± 1.2 % dose/g. For the same compound, the “Radioactivity Distribution, Thyroid” value ([3]; 5 min) was 71.6 ± 50.0 % dose/g, the “Adrenal gland/Blood ratio” value ([3]; 15 min) was 1.18 ± 0.15 and the “Adrenal gland/Kidney ratio” value ([3]; 15 min) was 1.24 ± 0.17. For the same compound, the “Adrenal gland/Liver ratio” value ([3]; 15 min) was 1.81 ± 0.07, the “Radioactivity Distribution, Adrenal gland” value ([3]; 15 min) was 7.3 ± 3.9 % dose/g and the “Radioactivity Distribution, Blood” value ([3]; 15 min) was 4.9 ± 0.3 % dose/g. The “Radioactivity Distribution, Heart” value ([3]; 15 min) was 2.6 ± 0.5 % dose/g, the “Radioactivity Distribution, Kidney” value ([3]; 15 min) was 4.5 ± 0.4 % dose/g and the “Radioactivity Distribution, Large intestine” value ([3]; 15 min) was 1.8 ± 0.2 % dose/g. The “Radioactivity Distribution, Liver” value ([3]; 15 min) was 3.0 ± 0.3 % dose/g, the “Radioactivity Distribution, Lung” value ([3]; 15 min) was 4.9 ± 0.3 % dose/g and the “Radioactivity Distribution, Pancreas” value ([3]; 15 min) was 2.8 ± 0.1 % dose/g. The “Radioactivity Distribution, Small intestine” value ([3]; 15 min) was 4.6 ± 0.9 % dose/g, the “Radioactivity Distribution, Spleen” value ([3]; 15 min) was 3.2 ± 0.3 % dose/g and the “Radioactivity Distribution, Stomach” value ([3]; 15 min) was 12.1 ± 2.0 % dose/g. The “Radioactivity Distribution, Thyroid” value ([3]; 15 min) was 349.4 ± 115.9 % dose/g, the “Adrenal gland/Blood ratio” value ([3]; 30 min) was 0.74 ± 0.40 and the “Adrenal gland/Kidney ratio” value ([3]; 30 min) was 0.75 ± 0.20. For the same compound, the “Adrenal gland/Liver ratio” value ([3]; 30 min) was 1.82 ± 0.53, the “Radioactivity Distribution, Adrenal gland” value ([3]; 30 min) was 2.3 ± 1.2 % dose/g and the “Radioactivity Distribution, Blood” value ([3]; 30 min) was 3.1 ± 0.3 % dose/g. For the same compound, the “Radioactivity Distribution, Heart” value ([3]; 30 min) was 1.3 ± 0.1 % dose/g, the “Radioactivity Distribution, Kidney” value ([3]; 30 min) was 3.5 ± 0.9 % dose/g and the “Radioactivity Distribution, Large intestine” value ([3]; 30 min) was 1.6 ± 0.2 % dose/g. The “Radioactivity Distribution, Liver” value ([3]; 30 min) was 1.5 ± 0.2 % dose/g, the “Radioactivity Distribution, Lung” value ([3]; 30 min) was 3.6 ± 1.6 % dose/g and the “Radioactivity Distribution, Pancreas” value ([3]; 30 min) was 1.7 ± 0.1 % dose/g. The “Radioactivity Distribution, Small intestine” value ([3]; 30 min) was 4.0 ± 0.4 % dose/g, the “Radioactivity Distribution, Spleen” value ([3]; 30 min) was 2.2 ± 0.3 % dose/g and the “Radioactivity Distribution, Stomach” value ([3]; 30 min) was 25.0 ± 6.4 % dose/g. For the same compound, the “Radioactivity Distribution, Thyroid” value ([3]; 30 min) was 486.5 ± 245.4 % dose/g, the “Adrenal gland/Blood ratio” value ([3]; 60 min) was 0.82 ± 0.16 and the “Adrenal gland/Kidney ratio” value ([3]; 60 min) was 0.84 ± 0.21. The “Adrenal gland/Liver ratio” value ([3]; 60 min) was 1.90 ± 0.47, the “Radioactivity Distribution, Adrenal gland” value ([3]; 60 min) was 1.7 ± 1.3 % dose/g and the “Radioactivity Distribution, Blood” value ([3]; 60 min) was 2.9 ± 0.2 % dose/g. The “Radioactivity Distribution, Heart” value ([3]; 60 min) was 1.0 ± 0.0 % dose/g, the “Radioactivity Distribution, Kidney” value ([3]; 60 min) was 2.7 ± 0.6 % dose/g and the “Radioactivity Distribution, Large intestine” value ([3]; 60 min) was 1.7 ± 0.5 % dose/g. The “Radioactivity Distribution, Liver” value ([3]; 60 min) was 1.2 ± 0.1 % dose/g, the “Radioactivity Distribution, Lung” value ([3]; 60 min) was 2.4 ± 0.1 % dose/g and the “Radioactivity Distribution, Pancreas” value ([3]; 60 min) was 1.5 ± 0.1 % dose/g. For the same compound, the “Radioactivity Distribution, Small intestine” value ([3]; 60 min) was 4.0 ± 0.4 % dose/g, the “Radioactivity Distribution, Spleen” value ([3]; 60 min) was 1.6 ± 0.2 % dose/g and the “Radioactivity Distribution, Stomach” value ([3]; 60 min) was 31.3 ± 11.2 % dose/g. For the same compound, the “Radioactivity Distribution, Thyroid” value ([3]; 60 min) was 1298.8 ± 729.1 % dose/g, the “Adrenal gland/Blood ratio” value ([3]; 120 min) was 0.86 ± 0.46 and the “Adrenal gland/Kidney ratio” value ([3]; 120 min) was 0.87 ± 0.42. For the same compound, the “Adrenal gland/Liver ratio” value ([3]; 120 min) was 0.73 ± 0.42, the “Radioactivity Distribution, Adrenal gland” value ([3]; 120 min) was 2.1 ± 1.4 % dose/g and the “Radioactivity Distribution, Blood” value ([3]; 120 min) was 2.3 ± 0.5 % dose/g. For the same compound, the “Radioactivity Distribution, Heart” value ([3]; 120 min) was 0.8 ± 0.2 % dose/g, the “Radioactivity Distribution, Kidney” value ([3]; 120 min) was 2.7 ± 1.6 % dose/g and the “Radioactivity Distribution, Large intestine” value ([3]; 120 min) was 2.4 ± 1.0 % dose/g. For the same compound, the “Radioactivity Distribution, Liver” value ([3]; 120 min) was 1.0 ± 0.2 % dose/g, the “Radioactivity Distribution, Lung” value ([3]; 120 min) was 2.0 ± 0.4 % dose/g and the “Radioactivity Distribution, Pancreas” value ([3]; 120 min) was 1.3 ± 0.3 % dose/g. The “Radioactivity Distribution, Small intestine” value ([3]; 120 min) was 3.0 ± 0.6 % dose/g, the “Radioactivity Distribution, Stomach” value ([3]; 120 min) was 27.4 ± 5.2 % dose/g and the “Radioactivity Distribution, Thyroid” value ([3]; 120 min) was 1400.6 ± 695.3 % dose/g.

Source: US20140187784A1, “RADIOACTIVE QUINOLINONE DERIVATIVE AND PHARMACEUTICAL DRUG COMPRISING THE SAME” (Nihon Medi-Physics Co., Ltd., priority 2012, published 2014)
